Experimental data: US20040044087A1, “Use of hop acids in fuel ethanol production” (priority 1999, published 2004)

What was measured:
Lb. fermentum [1] = experiment: Wheat mash fermentation contaminated with Lb. fermentum; type: cell-based, Lactobacillus fermentum; conditions: Example 5, inoculated 10^7 CFU/mL; Penicillin G 0.25 ppm, Virginiamycin 0.5 ppm, hop products at effective concentration
Protocol: The clean breed strains were kept frozen at −101.2° F. in MRS-broth containing 8%-glycerol and were inoculated from there in 10 mL cap tubes containing 2 mL MRS-broth. The headspace of each tube was flushed with filter sterilized (0.45 μm pore size membrane filter) CO2-gas and the caps were sealed with paraffin wax coated film. The tubes were incubated in a controlled environmental shaker at 100 rpm at 86° F. (Lb. brevis) and 96.8° F. (Lb. fermentum). After 12 hours 1 mL of these preparatory cultures were each transferred into 10 mL cap tubes containing 9 mL MRS-broth and incubated for another 24 hours, afterwards transferred to 100 mL screw cap flasks containing 90 mL of MRS-broth and again incubated at the appropriate temperature for 24 hours. These portions were transferred to 1 L screw cap flasks, containing 750 mL MRS-broth and were again incubated for 24 hours.
For inoculation of wheat mash the bacterial cells were aseptically harvested in sterile centrifugal tubes by centrifugation at 10,200×g for 15 minutes at 4° C. […]
Cell numbers of the organisms were estimated using a Beck photometer. […] Appropriate quantities of the concentrated cell suspension were added to 500 g quantities of wheat mash in laboratory fermentation flasks to give initial viable cell numbers of 10^7 CFU/mL. […]

[2] = below pH 5; cited from earlier work
Lb. fermentum [3] = experiment: Sugar beet molasses wort fermentation contaminated with Lb. fermentum; type: cell-based, Lactobacillus fermentum; conditions: 10^6 CFU/mL, Virginiamycin 0.5 ppm
Protocol: (§1) The clean breed strains were kept frozen at −101.2° F. in MRS-broth containing 8%-glycerol and were inoculated from there in 10 mL cap tubes containing 2 mL MRS-broth. The headspace of each tube was flushed with filter sterilized (0.45 μm pore size membrane filter) CO2-gas and the caps were sealed with paraffin wax coated film. The tubes were incubated in a controlled environmental shaker at 100 rpm at 86° F. (Lb. brevis) respectively 96.8° F. (Lb. fermentum). […] A filter sterilized (0.45 μm pore size membrane filter) 5 μl aliquot of the MRS-cell suspension for inoculation was determined by high performance liquid chromatography using a ProntoSIL 120-3-C18 AQ column which analyzes sugars, organic acids and alcohol, making sure glucose in the MRS-medium would be totally consumed and determining the amount of lactic acid an acetic acid added to fresh wort. Appropriate quantities of cell suspension were added to give a total of 500 g mash in laboratory fermentation flasks and initial viable bacterial cell numbers of 10^6 CFU/mL mash. The pH-value of the wort was afterwards readjusted to pH 5.2 if necessary. […]
(§2) The content of sucrose in beet molasses was determined by polarimeter after clarification with lead acetate. […]

lactobacillus = conditions: stated as fact for comparison with ISOHOP; cited from earlier work
Lb. brevis = experiment: Sugar beet molasses wort fermentation contaminated with Lb. brevis; type: cell-based, Lactobacillus brevis; conditions: 10^6 CFU/mL, Virginiamycin 0.5 ppm
Protocol: as §1, §2

Compound: CC1(C)S[C@@H]2[C@H](NC(=O)Cc3ccccc3)C(=O)N2[C@H]1C(=O)O [Penicillin G]
- viable cells after fermentation, Lb. fermentum (Lb. fermentum [1]): practically no effect
- stability [2]: rather poor stability

Compound: Virginiamycin
- viable cells after fermentation, Lb. fermentum (Lb. fermentum [1]): 10^3 cells/mL
- viable cells after fermentation, Lb. fermentum (Lb. fermentum [3]): no viable cells
- reduction of bacteria count (lactobacillus): 50%
- viable cells after fermentation, Lb. brevis (Lb. brevis): no viable cells
